The test system of one experiment is HCV replicon genotype 1b. Briefly: HCV replicon assay, genotype 1b (cell ELISA for NS3/4A). The format is cell-based, hepatitis C virus. The protocol: (§1) The HCV NS5B inhibitory activity of the present compounds may be tested using assays known in the art. The HCV NS5B polymerase inhibitors described herein have activities in a genotype 1b replicon assay as described in the Examples. The assay is performed by incubating a replicon harboring cell-line in the presence of inhibitor for a set period of time and measuring the effect of the inhibitor on HCV replicon replication either directly by quantifying replicon RNA level, or indirectly by measuring enzymatic activity of a co-encoded reporter enzyme such as luciferase or β-lactamase. By performing a series of such measurements at different inhibitor concentrations, the effective inhibitory concentration of the inhibitor (EC50 or EC90) is determined. See Jan M. Vrolijk et al., A replicons-based bioassay for the measurement of interferons in patients with chronic hepatitis C, 110 J. VIROLOGICAL METHODS 201 (2003). Such assays may also be run in an automated format for high through-put screening. See Paul Zuck et al., A cell-based β-lactamase reporter gene assay for the identification of inhibitors of hepatitis C virus replication, 334 ANALYTICAL BIOCHEMISTRY 344 (2004).
(§2) Measurement of inhibition by compounds was performed using the HCV replicon system. Several different replicons encoding different HCV genotypes or mutations were used. In addition, potency measurements were made using different formats of the replicon assay, including different ways of measurements and different plating formats. See Jan M. Vrolijk et al., A replicons-based bioassay for the measurement of interferons in patients with chronic hepatitis C, 110 J. VIROLOGICAL METHODS 201 (2003); Steven S. Carroll et al., Inhibition of Hepatitis C Virus RNA Replication by 2′-Modified Nucleoside Analogs, 278(14) J. BIOLOGICAL CHEMISTRY 11979 (2003). However, the underlying principles are common to all of these determinations, and are outlined below.
(§3) Stable neomycin phosphotransferase encoding replicons-harboring cell lines were used, so all cell lines were maintained under G418 selection prior to the assay. Potency was deteremined using a cell ELISA assay with an antibody to the replicons encoded NS3/4a protease. See Caterina Trozzi et al., In Vitro Selection and Characterization of Hepatitis C Virus Serine Protease Variants Resistant to an Active-Site Peptide Inhibitor, 77(6) J. Virol. 3669 (2003). To initiate an assay, replicon cells were plated in the presence of a dilution series of test compound in the absence of G418. Typically, the assays were performed in a 96-well plate formate for manual operation, or a 384-well plate format for automated assay. Replicon cells and compound were incubated for 96 hours. At the end of the assay, cells were washed free of media and compound, and the cells were then lysed. RNA was quantified indirectly through detection of replicon-encoded NS3/4A protein levels, through an ELISA-based assay with an antibody specific for NS3/4A. IC50 determinations were calculated as a percentage of a DMSO control by fitting the data to a four-parameter fit function and the data obtained is provided in the table below.
(§4) Data for selected compounds of the present invention was obtained for genotypes 1a and 1b using this method and is provided in the table below: […]
(In general: A replicon is a self-replicating genome or part of one, used to study replication in cells.)

The next experiment relates to HCV replicon genotype 1a. Briefly: HCV replicon assay, genotype 1a (cell ELISA for NS3/4A). Type of experiment: cell-based, hepatitis C virus. The protocol: as §1, §2, §3, §4
The mark [1] stands for this setting: Hepatitis C virus, 96 h, read-out: 1b IC50 (nM), HCV genotype 1b replicon cells, 96 hours incubation, NS3/4A ELISA readout, % of DMSO control.
Setting [2] is: Hepatitis C virus, 96 h, read-out: 1a IC50 (nM), HCV genotype 1a replicon cells, 96 hours incubation, NS3/4A ELISA readout, % of DMSO control.
Where [3] appears, read: read-out: 1b IC50, HCV genotype 1b replicon cells, 96 hours incubation, NS3/4A ELISA readout, % of DMSO control.
Where [4] appears, read: read-out: 1a IC50, HCV genotype 1a replicon cells, 96 hours incubation, NS3/4A ELISA readout, % of DMSO control.

Read-outs that look alike come from different tables or passages of the source.

As to `CNC(=O)c1c(-c2ccc(F)cc2)oc2cc(N(C)S(C)(=O)=O)c([C@H]3CCCN(c4nc5c(C#N)cccc5o4)C3)cc12` [Example 4, (R)-5-(1-(4-cyanobenzo[d]oxazol-2-yl)piperidin-3-yl)-2-(4-fluorophenyl)-N-methyl-6-(N-methylmethylsulfonamido)benzofuran-3-carboxamide], the IC50 with HCV replicon genotype 1b (setting [1]) worked out at 6.53 nM; in the experiment on HCV replicon genotype 1a (setting [2]), 7.03 nM.

Consider `CNC(=O)c1c(-c2ccc(F)cc2)oc2cc(N(C)S(C)(=O)=O)c([C@H]3CCCN(C(=O)c4n[nH]c5cc(Br)ccc45)C3)cc12` [Example 99, 5-{(3R)-1-[(6-bromo-1H-indazol-3-yl)carbonyl]piperidin-3-yl}-2-(4-fluorophenyl)-N-methyl-6-[methyl(methylsulfonyl)amino]-1-benzofuran-3-carboxamide], for which the IC50 was found to be 66.7 nM in the experiment on HCV replicon genotype 1b (setting [1]) and 137 nM in the experiment with HCV replicon genotype 1a (setting [2]).

Consider `CNC(=O)c1c(-c2ccc(F)cc2)oc2cc(N(C)S(C)(=O)=O)c([C@H]3CN(C(=O)c4cc5cccc(F)c5[nH]4)CCO3)cc12` (single isomer, unassigned) [Example 6, 5-(4-(7-fluoro-1H-indole-2-carbonyl)morpholin-2-yl)-2-(4-fluorophenyl)-N-methyl-6-(N-methylmethylsulfonamido)benzofuran-3-carboxamide], for which the IC50 was 17.4 nM with HCV replicon genotype 1b (setting [1]) and 11.1 nM in the experiment with HCV replicon genotype 1a (setting [2]).

Turning to `CNC(=O)c1c(-c2ccc(F)cc2)oc2cc(N(C)S(C)(=O)=O)c([C@@H]3CCCN(c4nc5c(F)cccc5[nH]4)C3)cc12` (single isomer, unassigned) [Example 55, 5-(1-(4-fluoro-1H-benzo[d]imidazol-2-yl)piperidin-3-yl)-2-(4-fluorophenyl)-N-methyl-6-(N-methylmethylsulfonamido)benzofuran-3-carboxamide], the IC50 turned out to be 3.63 nM with HCV replicon genotype 1b (setting [3]) and 5.65 nM with HCV replicon genotype 1a (setting [4]).

Regarding `CNC(=O)c1c(-c2ccc(F)cc2)oc2cc(N(C)S(C)(=O)=O)c([C@@H]3CCCN(S(=O)(=O)c4cccc(C)c4)C3)cc12` [Example 126, 2-(4-fluorophenyl)-N-methyl-6-[methyl(methylsulfonyl)amino]-5-{(3S)-1-[(3-methylphenyl)sulfonyl]piperidin-3-yl}-1-benzofuran-3-carboxamide], the results for the IC50 with HCV replicon genotype 1b (setting [1]) and in the experiment with HCV replicon genotype 1a (setting [2]) were 13.2 nM and 46.9 nM, respectively.

On to `CNC(=O)c1c(-c2ccc(F)cc2)oc2cc(N(C)S(C)(=O)=O)c([C@@H]3CCCN(C(=O)c4nc5ccccc5s4)C3)cc12` [Example 69, 5-[1-(1,3-benzothiazol-2-ylcarbonyl)piperidin-3-yl]-2-(4-fluorophenyl)-N-methyl-6-[methyl(methylsulfonyl)amino]-1-benzofuran-3-carboxamide], for which the IC50 with HCV replicon genotype 1b (setting [1]) came out at 22.8 nM; in the experiment on HCV replicon genotype 1a (setting [2]), 74.4 nM.

Take `CNC(=O)c1c(-c2ccc(F)cc2)oc2cc(N(C)S(C)(=O)=O)c([C@@H]3CCCN(C(=O)c4cc5c(F)cccc5n4C)C3)cc12` (single isomer, unassigned) [Example 26, 5-(1-(4-fluoro-1-methyl-1H-indole-2-carbonyl)piperidin-3-yl)-2-(4-fluorophenyl)-N-methyl-6-(N-methylmethylsulfonamido)benzofuran-3-carboxamide]: the figures for the IC50 with HCV replicon genotype 1b (setting [3]) and with HCV replicon genotype 1a (setting [4]) were 12.6 nM and 15.8 nM, respectively.

In the case of `CNC(=O)c1c(-c2ccc(F)cc2)oc2cc(N(C)S(C)(=O)=O)c([C@H]3CCCN(C(=O)c4ccn5nncc5c4)C3)cc12` [Example 105, 2-(4-fluorophenyl)-N-methyl-6-[methyl(methylsulfonyl)amino]-5-[(3R)-1-([1,2,3]triazolo[1,5-a]pyridin-5-ylcarbonyl)piperidin-3-yl]-1-benzofuran-3-carboxamide], the IC50 with HCV replicon genotype 1b (setting [1]) was 219 nM; with HCV replicon genotype 1a (setting [2]), 347 nM.

With `CNC(=O)c1c(-c2ccc(F)cc2)oc2cc(N(C)S(C)(=O)=O)c([C@@H]3CCCN(C(=O)c4c[nH]cc4-c4ccc(F)cc4)C3)cc12` [Example 71, 2-(4-fluorophenyl)-5-(1-{[4-(4-fluorophenyl)-1H-pyrrol-3-yl]carbonyl}piperidin-3-yl)-N-methyl-6-[methyl(methylsulfonyl)amino]-1-benzofuran-3-carboxamide], the figures for the IC50 in the experiment with HCV replicon genotype 1b (setting [1]) and in the experiment with HCV replicon genotype 1a (setting [2]) were 95.4 nM and 168 nM, respectively.

With `CNC(=O)c1c(-c2ccc(F)cc2)oc2cc(N(C)S(C)(=O)=O)c([C@H]3CCCN(C(=O)c4n[nH]c(=O)c5ccccc45)C3)cc12` [Example 97, 2-(4-fluorophenyl)-N-methyl-6-[methyl(methylsulfonyl)amino]-5-{(3R)-1-[(4-oxo-3,4-dihydrophthalazin-1-yl)carbonyl]piperidin-3-yl}-1-benzofuran-3-carboxamide], the IC50 in the experiment on HCV replicon genotype 1b (setting [1]) turned out to be 470 nM; in the experiment with HCV replicon genotype 1a (setting [2]), 336 nM.

Regarding `CNC(=O)c1c(-c2ccc(F)cc2)oc2cc(N(C)S(C)(=O)=O)c([C@@H]3CCCN(S(=O)(=O)Cc4cccnc4)C3)cc12` [Example 110, 2-(4-fluorophenyl)-N-methyl-6-[methyl(methylsulfonyl)amino]-5-{(3S)-1-[(pyridin-3-ylmethyl)sulfonyl]piperidin-3-yl}-1-benzofuran-3-carboxamide], the IC50 came to 38.4 nM in the experiment on HCV replicon genotype 1b (setting [1]) and 164 nM in the experiment with HCV replicon genotype 1a (setting [2]).

Take `CNC(=O)c1c(-c2ccc(F)cc2)oc2cc(N(C)S(C)(=O)=O)c([C@H]3CCCN(S(=O)(=O)Cc4ccccc4F)C3)cc12` [Example 81, 5-{(3R)-1-[(2-fluorobenzyl)sulfonyl]piperidin-3-yl}-2-(4-fluorophenyl)-N-methyl-6-[methyl(methylsulfonyl)amino]-1-benzofuran-3-carboxamide]: the IC50 was found to be 11.6 nM with HCV replicon genotype 1b (setting [1]) and 14.1 nM with HCV replicon genotype 1a (setting [2]).

On to `CNC(=O)c1c(-c2ccc(F)cc2)oc2cc(N(C)S(C)(=O)=O)c([C@H]3CCCN(S(=O)(=O)C4CCCCC4)C3)cc12` [Example 132, 5-[(3R)-1-(cyclohexylsulfonyl)piperidin-3-yl]-2-(4-fluorophenyl)-N-methyl-6-[methyl(methylsulfonyl)amino]-1-benzofuran-3-carboxamide], for which the IC50 with HCV replicon genotype 1b (setting [1]) stood at 56.1 nM; with HCV replicon genotype 1a (setting [2]), 93.3 nM.

As to `CNC(=O)c1c(-c2ccc(F)cc2)oc2cc(N(C)S(C)(=O)=O)c([C@@H]3CCCN(C(=O)c4cc5c(OC)cccc5[nH]4)C3)cc12` [Example 64, 2-(4-fluorophenyl)-5-{1-[(4-methoxy-1H-indol-2-yl)carbonyl]piperidin-3-yl}-N-methyl-6-[methyl(methylsulfonyl)amino]-1-benzofuran-3-carboxamide], the IC50 was found to be 40.7 nM in the experiment with HCV replicon genotype 1b (setting [1]) and 135 nM in the experiment with HCV replicon genotype 1a (setting [2]).

For `CNC(=O)c1c(-c2ccc(F)cc2)oc2cc(N(C)S(C)(=O)=O)c([C@H]3CN(c4nc5ccccc5o4)CCO3)cc12` (single isomer, unassigned) [Example 11, 5-(4-(benzo[d]oxazol-2-yl)morpholin-2-yl)-2-(4-fluorophenyl)-N-methyl-6-(N-methylmethylsulfonamido)benzofuran-3-carboxamide], the figures for the IC50 with HCV replicon genotype 1b (setting [3]) and with HCV replicon genotype 1a (setting [4]) were 17.2 nM and 21.4 nM, respectively.

For `CNC(=O)c1c(-c2ccc(F)cc2)oc2cc(N(C)S(C)(=O)=O)c([C@@H]3CCCN(C(=O)C4CC4c4ccc(F)cc4)C3)cc12` (stereo in doubt) [Example 61, 2-(4-fluorophenyl)-5-(1-{[2-(4-fluorophenyl)cyclopropyl]carbonyl}piperidin-3-yl)-N-methyl-6-[methyl(methylsulfonyl)amino]-1-benzofuran-3-carboxamide], the figures for the IC50 in the experiment with HCV replicon genotype 1b (setting [1]) and in the experiment on HCV replicon genotype 1a (setting [2]) were 99.5 nM and 251 nM, respectively.

Source of the values: patent US9549921B2, “Heterocyclic compounds and methods of use thereof for the treatment of hepatitis C” (priority 2014, dated 2017).
